The source of these data is patent publication US20250059205A1, “Heterocyclic Compounds and Methods of Use” (AMGEN INC., priority 2021, published 2025).

The target of assay [1] is His-tagged KRAS G12D protein (Homo sapiens, UniProt P01116, G12D). Kind of assay: KRAS G12D TR-FRET Assay. The format is binding.
Assay [2] has as its target GDP-bound KRAS protein (aa 1-169), containing both G12D and C118A amino acid substitutions (Homo sapiens, UniProt P01116, C118A/G12D). Kind of assay: KRAS G12D Coupled Nucleotide Exchange Assay. The format is biochemical. As to conditions: 2 h compound pre-incubation. The procedure: Following compound pre-incubation, purified SOS protein (aa 564-1049) and GTP (Roche 10106399001) were added to the assay wells and incubated for an additional 30 min. […] The assay plates were then read on a PerkinElmer EnVision Multilabel Reader, using AlphaScreen® technology, and data were analyzed using a 4-parameter logistic model to calculate IC50 values.

For assay [3], the system named is Phosphorylation of ERK1/2 in A-427 cells. Kind of assay: Phospho-ERK1/2 MSD Assay (A-427 cells). The following applies: Homo sapiens, A-427, 2 h, 2 h treatment, read-out: p-ERK (A427 cells) IC50. The format is cell-based. The method, boiled down: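 ERK1/2 phosphorylation measured by Meso Scale whole-cell lysate assay after A-427 cells were exposed to a titration of compound for 2 h at 37 °C.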

Assay [4] concerns Phosphorylation of ERK1/2 in AsPC-1 cells. Description: Phospho-ERK1/2 MSD Assay (AsPC-1 cells). The class given is cell-based. The following applies: Homo sapiens, ASPC1, 2 h, 2 hours treatment, read-out: p-ERK (AsPC-1 cells) IC50. The method, boiled down: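 Read-out: MSD electrochemiluminescent detection of phosphorylated ERK1/2 in whole-cell lysates, fitted to a 4-parameter logistic curve for IC50. Prior to lysis, AsPC-1 cells (25,000 per well) received a 2 h compound dose-response at 37 °C.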

Each structure is given as a SMILES string.

GDP-bound KRAS protein (aa 1-169), containing both G12D and C118A amino acid substitutions, sequence (P01116 1-169 isoform P01116-2 G12D/C118A): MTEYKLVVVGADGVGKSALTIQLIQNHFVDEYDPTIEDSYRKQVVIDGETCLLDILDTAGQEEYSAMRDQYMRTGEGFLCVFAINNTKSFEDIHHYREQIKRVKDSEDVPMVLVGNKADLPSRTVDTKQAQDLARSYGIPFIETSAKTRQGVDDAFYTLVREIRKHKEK
His-tagged KRAS G12D protein, sequence (P01116 1-188 isoform P01116-2 G12D): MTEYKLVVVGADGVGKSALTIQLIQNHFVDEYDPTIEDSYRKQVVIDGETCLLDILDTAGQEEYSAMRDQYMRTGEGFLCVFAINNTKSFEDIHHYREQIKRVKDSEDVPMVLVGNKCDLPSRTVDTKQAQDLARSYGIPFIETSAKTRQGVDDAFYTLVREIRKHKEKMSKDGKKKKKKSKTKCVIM

On to `CCc1c(F)ccc2cc(O)cc(-c3cc4nc(OC[C@@]56CCCN5C[C@H](F)C6)nc(N5C[C@H]6CC[C@@H](C5)N6)c4cc3N)c12` [Example 203, 4-(6-Amino-4-((1R,5S)-3,8-diazabicyclo[3.2.1]octan-3-yl)-2-(((2R,7aS)-2-fluorotetrahydro-1H-pyrrolizin-7a(5H)-yl)methoxy)quinazolin-7-yl)-5-ethyl-6-fluoronaphthalen-2-ol], for which the IC50 was 0.006 µM in assay [1], 0.062 µM in assay [3] and 0.171 µM in assay [4]. Moreover, the “Avg 2 h Coupled Exchange IC50” value in assay [2] came to 0.002 µM.
For `N#Cc1cccc2cc(O)cc(-c3c(F)cc4c(N5C[C@H]6CC[C@@H](C5)N6)nc(OC[C@@]56CCCN5C[C@H](F)C6)nc4c3F)c12` [Example 204, 8-(4-((1R,5S)-3,8-Diazabicyclo[3.2.1]octan-3-yl)-6,8-difluoro-2-(((2R,7aS)-2-fluorotetrahydro-1H-pyrrolizin-7a(5H)-yl)methoxy)quinazolin-7-yl)-6-hydroxy-1-naphthonitrile], the IC50 in assay [1] was 0.002 µM; in assay [3] it was 0.026 µM; in assay [4] it was 0.098 µM. Besides, in assay [2], the “Avg 2 h Coupled Exchange IC50” value came out at 0.003 µM.
For `N#Cc1cccc2cc(O)cc(-c3ccc4c(N5C[C@H]6CC[C@@H](C5)N6)nc(OC[C@@]56CCCN5C[C@H](F)C6)nc4c3F)c12` [Example 205, 8-(4-((1R,5S)-3,8-Diazabicyclo[3.2.1]octan-3-yl)-8-fluoro-2-(((2R,7aS)-2-fluorotetrahydro-1H-pyrrolizin-7a(5H)-yl)methoxy)quinazolin-7-yl)-6-hydroxy-1-naphthonitrile], the IC50 in assay [1] was 0.006 µM; in assay [3] it was 0.071 µM; in assay [4] it was 0.293 µM. In assay [2], the “Avg 2 h Coupled Exchange IC50” value came to 0.007 µM.
`Oc1cc(-c2c(F)cc3c(N4C[C@H]5CC[C@@H]4CN5)nc(OC[C@@]45CCCN4C[C@H](F)C5)nc3c2F)c2ccccc2c1Cl` [Example 206, 4-(4-((1R,4R)-2,5-Diazabicyclo[2.2.2]octan-2-yl)-6,8-difluoro-2-(((2R,7aS)-2-fluorotetrahydro-1H-pyrrolizin-7a(5H)-yl)methoxy)quinazolin-7-yl)-1-chloronaphthalen-2-ol]: the IC50 in assay [1] was found to be 0.03 µM; in assay [3], 0.116 µM; in assay [4], 0.705 µM. Also, the “Avg 2 h Coupled Exchange IC50” value in assay [2] was determined as 0.042 µM.
For `Cc1ccc2[nH]nc(C)c2c1-c1c(Cl)cc2c(N3C[C@H]4CC[C@@H](C3)N4)nc(OC[C@@]34CCCN3C[C@H](F)C4)nc2c1F` [Example 207, 4-((1R,5S)-3,8-Diazabicyclo[3.2.1]octan-3-yl)-6-chloro-7-(3,5-dimethyl-1H-indazol-4-yl)-8-fluoro-2-(((2R,7aS)-2-fluorotetrahydro-1H-pyrrolizin-7a(5H)-yl)methoxy)quinazoline], the figures for the half-maximal inhibitory concentration (IC50) in assay [1], in assay [3] and in assay [4] were 0.007 µM, 0.202 µM and 0.348 µM, respectively. Further, in assay [2], the “Avg 2 h Coupled Exchange IC50” value is 0.007 µM.
For the compound `Cc1ccc2[nH]nc(C)c2c1-c1c(F)cc2c(N3C[C@H]4CC[C@@H](C3)N4)nc(OC[C@@]34CCCN3C[C@H](F)C4)nc2c1F` [Example 208, 4-((1R,5S)-3,8-diazabicyclo[3.2.1]octan-3-yl)-7-(3,5-dimethyl-1H-indazol-4-yl)-6,8-difluoro-2-(((2R,7aS)-2-fluorotetrahydro-1H-pyrrolizin-7a(5H)-yl)methoxy) quinazoline], the IC50 stood at 0.018 µM in assay [1], 0.484 µM in assay [3] and 0.843 µM in assay [4]. Moreover, the “Avg 2 h Coupled Exchange IC50” value in assay [2] was found to be 0.008 µM.
Regarding `Cc1ccc2[nH]nc(C)c2c1-c1ccc2c(N3C[C@H]4CC[C@@H](C3)N4)nc(OC[C@@]34CCCN3C[C@H](F)C4)nc2c1F` [Example 209, 4-((1R,5S)-3,8-diazabicyclo[3.2.1]octan-3-yl)-7-(3,5-dimethyl-1H-indazol-4-yl)-8-fluoro-2-(((2R,7aS)-2-fluorotetrahydro-1H-pyrrolizin-7a(5H)-yl)methoxy) quinazoline], the IC50 in assay [1] came out at 0.068 µM; in assay [3], 1.62 µM; in assay [4] it was 2.57 µM. Moreover, the “Avg 2 h Coupled Exchange IC50” value in assay [2] is 0.024 µM.
The like results for `CCc1c(F)ccc2cc(O)cc(-c3ccc4c(N5C[C@H]6CC[C@@H](C5)N6)cc(OC[C@@]56CCCN5C[C@H](F)C6)nc4c3F)c12` [Example 211, 4-(4-((1R,5S)-3,8-Diazabicyclo[3.2.1]octan-3-yl)-8-fluoro-2-(((2R,7aS)-2-fluorotetrahydro-1H-pyrrolizin-7a(5H)-yl)methoxy)quinolin-7-yl)-5-ethyl-6-fluoronaphthalen-2-ol] were, in that order, 0.018 µM, 6.29 µM, 8.75 µM and 0.029 µM.
The matching figures for `CCc1c(F)ccc2cc(O)cc(-c3c(F)cc4c(N5C[C@H]6CC[C@@H](C5)N6)nc(OCC5(C)CCC(=O)O5)nc4c3F)c12` (stereo partly drawn) [Example 212, 5-(((4-((1R,5S)-3,8-Diazabicyclo[3.2.1]octan-3-yl)-7-(8-ethyl-7-fluoro-3-hydroxynaphthalen-1-yl)-6,8-difluoroquinazolin-2-yl)oxy)methyl)-5-methyldihydrofuran-2(3H)-one]: 0.002 µM, 0.514 µM, 0.784 µM and 0.003 µM.
In the case of `CCc1c(F)ccc2cc(O)cc(-c3c(F)cc4c(N5C[C@H]6CC[C@@H](C5)N6)nc(OCc5nccn5C)nc4c3F)c12` [Example 213, 4-(4-((1R,5S)-3,8-diazabicyclo[3.2.1]octan-3-yl)-6,8-difluoro-2-((1-methyl-1H-imidazol-2-yl)methoxy)quinazolin-7-yl)-5-ethyl-6-fluoronaphthalen-2-ol], the IC50 came out at 0.011 µM in assay [1], 1.46 µM in assay [3] and 2.3 µM in assay [4]. Also, the “Avg 2 h Coupled Exchange IC50” value in assay [2] is 0.006 µM.
The matching figures for `CCc1c(F)ccc2cc(O)cc(-c3c(F)cc4c(N5C[C@H]6CC[C@@H](C5)N6)nc(OCC(C)(O)CC)nc4c3F)c12` (stereo partly drawn) [Example 214, 4-(4-((1R,5S)-3,8-diazabicyclo[3.2.1]octan-3-yl)-6,8-difluoro-2-(2-hydroxy-2-methylbutoxy)quinazolin-7-yl)-5-ethyl-6-fluoronaphthalen-2-ol]: 0.013 µM, 1.7 µM, 1.21 µM and 0.005 µM.
The like results for `CCc1c(F)ccc2cc(O)cc(-c3c(F)cc4c(N5C[C@H]6CC[C@@H](C5)N6)nc(OC[C@@H]5CC(F)(F)CN5)nc4c3F)c12` [Example 217, 4-(4-((1R,5S)-3,8-diazabicyclo[3.2.1]octan-3-yl)-2-(((S)-4,4-difluoropyrrolidin-2-yl)methoxy)-6,8-difluoroquinazolin-7-yl)-5-ethyl-6-fluoronaphthalen-2-ol] were, in that order, 0.004 µM, 0.218 µM, 0.414 µM and 0.004 µM.
The matching figures for `CCc1c(F)ccc2cc(O)cc(-c3c(F)cc4c(N5C[C@H]6CC[C@@H](C5)N6)nc(/C=C/C(C)(C)O)nc4c3F)c12` [Example 218, 4-(4-((1R,5S)-3,8-Diazabicyclo[3.2.1]octan-3-yl)-6,8-difluoro-2-((E)-3-hydroxy-3-methylbut-1-en-1-yl)quinazolin-7-yl)-S-ethyl-6-fluoronaphthalen-2-ol]: 0.006 µM, 1.46 µM, 1.14 µM and 0.006 µM.
For the compound `N#Cc1cc2c(N3C[C@H]4CC[C@@H](C3)N4)nc(OC[C@@]34CCCN3C[C@H](F)C4)nc2c(F)c1-c1cc(O)cc2ccccc12` [Example 219, 4-((1R,5S)-3,8-Diazabicyclo[3.2.1]octan-3-yl)-8-fluoro-2-(((2R,7aS)-2-fluorotetrahydro-1H-pyrrolizin-7a(5H)-yl)methoxy)-7-(3-hydroxynaphthalen-1-yl)quinazoline-6-carbonitrile], the IC50 in assay [1] is 0.001 µM; in assay [3], 0.092 µM; in assay [4], 0.531 µM. Besides, the “Avg 2 h Coupled Exchange IC50” value in assay [2] turned out to be 0.002 µM.
Regarding `Nc1cc2ccccc2c(-c2ccc3c(N4CC5CCC(C4)N5)nc(OC[C@@]45CCCN4C[C@H](F)C5)nc3c2F)n1` [Example 220], the IC50 was 0.06 µM in assay [1], 2.86 µM in assay [3] and 4.4 µM in assay [4]. Also, in assay [2], the “Avg 2 h Coupled Exchange IC50” value worked out at 0.022 µM.
On to `Oc1cc(-c2ccc3c(N4C[C@H]5CC[C@@H](C4)N5)nc(OC[C@@]45CCCN4C[C@H](F)C5)nc3c2F)c2ccccc2c1F` [Example 221, 4-(4-((1R,5S)-3,8-diazabicyclo[3.2.1]octan-3-yl)-8-fluoro-2-(((2R,7aS)-2-fluorotetrahydro-1H-pyrrolizin-7a(5H)-yl)methoxy)quinazolin-7-yl)-1-fluoronaphthalen-2-ol], for which the figures for the IC50 in assay [1], in assay [3] and in assay [4] were 0.001 µM, 0.139 µM and 0.325 µM, respectively. Also, the “Avg 2 h Coupled Exchange IC50” value in assay [2] was determined as 0.001 µM.

As usually defined, the IC50 is the concentration that inhibits the measured activity by half.
